Test results taken from PubChem BioAssay (NCI).
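Each compound was tested at five concentrations against cells in 96-well plates for 48 hours. Abbreviation: GI50, concentration required for 50% inhibition of growth. TGI denotes the concentration required for complete inhibition of growth.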

Experiments:
Assay in all cases: NCI anticancer screen, dose series, 48 h
786-0 renal = tested on: 786-0 renal
A498 renal = tested on: A498 renal
A549 NSCLC = tested on: A549 NSCLC
ACHN renal = tested on: ACHN renal
BT-549 breast = tested on: BT-549 breast
CAKI-1 renal = tested on: CAKI-1 renal
CCRF-CEM leukemia = tested on: CCRF-CEM leukemia
DU-145 prostate = tested on: DU-145 prostate
EKVX NSCLC = tested on: EKVX NSCLC
HCC-2998 colon = tested on: HCC-2998 colon
HCT-116 colon = tested on: HCT-116 colon
HCT-15 colon = tested on: HCT-15 colon
HL-60(TB) leukemia = tested on: HL-60(TB) leukemia
HOP-62 NSCLC = tested on: HOP-62 NSCLC
HOP-92 NSCLC = tested on: HOP-92 NSCLC
HS 578T breast = tested on: HS 578T breast
HT29 colon = tested on: HT29 colon
IGROV1 ovarian = tested on: IGROV1 ovarian
K-562 leukemia = tested on: K-562 leukemia
KM12 colon = tested on: KM12 colon
LOX IMVI melanoma = tested on: LOX IMVI melanoma
M14 melanoma = tested on: M14 melanoma
MALME-3M melanoma = tested on: MALME-3M melanoma
MCF7 breast = tested on: MCF7 breast
MDA-MB-231 breast = tested on: MDA-MB-231 breast
MDA-MB-435 = tested on: MDA-MB-435
MOLT-4 leukemia = tested on: MOLT-4 leukemia
NCI-H226 lung = tested on: NCI-H226 lung
NCI-H460 lung = tested on: NCI-H460 lung
NCI-H522 lung = tested on: NCI-H522 lung
NCI/ADR-RES ovarian = tested on: NCI/ADR-RES ovarian
OVCAR-3 ovarian = tested on: OVCAR-3 ovarian
OVCAR-4 ovarian = tested on: OVCAR-4 ovarian
OVCAR-5 ovarian = tested on: OVCAR-5 ovarian
OVCAR-8 ovarian = tested on: OVCAR-8 ovarian
PC-3 prostate = tested on: PC-3 prostate
RXF 393 renal = tested on: RXF 393 renal
SF-268 CNS = tested on: SF-268 CNS
SF-295 CNS = tested on: SF-295 CNS
SF-539 CNS = tested on: SF-539 CNS
SK-MEL-2 melanoma = tested on: SK-MEL-2 melanoma
SK-MEL-28 melanoma = tested on: SK-MEL-28 melanoma
SK-MEL-5 melanoma = tested on: SK-MEL-5 melanoma
SK-OV-3 ovarian = tested on: SK-OV-3 ovarian
SN12C renal = tested on: SN12C renal
SNB-19 CNS = tested on: SNB-19 CNS
SNB-75 CNS = tested on: SNB-75 CNS
SR leukemia = tested on: SR leukemia
SW-620 colon = tested on: SW-620 colon
T-47D breast = tested on: T-47D breast
TK-10 renal = tested on: TK-10 renal
U251 CNS = tested on: U251 CNS
UACC-257 melanoma = tested on: UACC-257 melanoma
UACC-62 melanoma = tested on: UACC-62 melanoma
UO-31 renal = tested on: UO-31 renal

SMILES: [Cl][Ru].c1ccc(-c2cccc(-c3ccccn3)n2)nc1.c1ccc(-c2ccnc3c2ccc2c(-c4ccccc4)ccnc23)cc1
- GI50 (786-0 renal): 13.2 µM
- TGI (786-0 renal): 62.7 µM
- GI50 (A498 renal): 15.1 µM
- TGI (A498 renal): 46.6 µM
- GI50 (A549 NSCLC): 4.06 µM
- TGI (A549 NSCLC): 75.4 µM
- GI50 (ACHN renal): 21.2 µM
- TGI (ACHN renal): > 100 µM
- GI50 (BT-549 breast): 2260 nM
- TGI (BT-549 breast): 6.46 µM
- GI50 (CAKI-1 renal): 13.8 µM
- TGI (CAKI-1 renal): 36.6 µM
- GI50 (CCRF-CEM leukemia): 4.5 µM
- TGI (CCRF-CEM leukemia): > 100 µM
- GI50 (DU-145 prostate): 4.84 µM
- TGI (DU-145 prostate): > 100 µM
- GI50 (EKVX NSCLC): 3.22 µM
- TGI (EKVX NSCLC): 23.3 µM
- TGI (HCC-2998 colon): 20.1 µM
- GI50 (HCT-116 colon): 3.16 µM
- TGI (HCT-116 colon): > 100 µM
- GI50 (HCT-15 colon): 22.4 µM
- TGI (HCT-15 colon): > 100 µM
- GI50 (HL-60(TB) leukemia): 1620 nM
- TGI (HL-60(TB) leukemia): 4.03 µM
- GI50 (HOP-62 NSCLC): 4.11 µM
- TGI (HOP-62 NSCLC): 27.9 µM
- GI50 (HOP-92 NSCLC): 1090 nM
- TGI (HOP-92 NSCLC): 3.64 µM
- GI50 (HS 578T breast): 2600 nM
- TGI (HS 578T breast): 8.63 µM
- GI50 (HT29 colon): 3.08 µM
- TGI (HT29 colon): 12 µM
- GI50 (IGROV1 ovarian): 2930 nM
- TGI (IGROV1 ovarian): 20.7 µM
- GI50 (K-562 leukemia): 1670 nM
- TGI (K-562 leukemia): > 100 µM
- GI50 (KM12 colon): 3.04 µM
- TGI (KM12 colon): > 100 µM
- GI50 (LOX IMVI melanoma): 3.04 µM
- TGI (LOX IMVI melanoma): > 100 µM
- GI50 (M14 melanoma): 4.82 µM
- TGI (M14 melanoma): 34.3 µM
- GI50 (MALME-3M melanoma): 2420 nM
- TGI (MALME-3M melanoma): 7.52 µM
- GI50 (MCF7 breast): 2410 nM
- TGI (MCF7 breast): 13.4 µM
- GI50 (MDA-MB-231 breast): 3000 nM
- TGI (MDA-MB-231 breast): 12.5 µM
- GI50 (MDA-MB-435): 2770 nM
- TGI (MDA-MB-435): 11 µM
- GI50 (MOLT-4 leukemia): 3.51 µM
- TGI (MOLT-4 leukemia): 24.5 µM
- GI50 (NCI-H226 lung): 4.66 µM
- TGI (NCI-H226 lung): 25.7 µM
- GI50 (NCI-H460 lung): 3.75 µM
- TGI (NCI-H460 lung): > 100 µM
- GI50 (NCI-H522 lung): 2120 nM
- TGI (NCI-H522 lung): 6.75 µM
- GI50 (NCI/ADR-RES ovarian): 10 µM
- TGI (NCI/ADR-RES ovarian): > 100 µM
- GI50 (OVCAR-3 ovarian): 3.36 µM
- TGI (OVCAR-3 ovarian): > 100 µM
- GI50 (OVCAR-4 ovarian): 3.13 µM
- TGI (OVCAR-4 ovarian): 26.7 µM
- GI50 (OVCAR-5 ovarian): 4.01 µM
- TGI (OVCAR-5 ovarian): 19.5 µM
- GI50 (OVCAR-8 ovarian): 5.35 µM
- TGI (OVCAR-8 ovarian): 59 µM
- GI50 (PC-3 prostate): 2630 nM
- TGI (PC-3 prostate): 10.6 µM
- GI50 (RXF 393 renal): 3.43 µM
- TGI (RXF 393 renal): 19 µM
- GI50 (SF-268 CNS): 4.17 µM
- TGI (SF-268 CNS): > 100 µM
- GI50 (SF-295 CNS): 13.8 µM
- TGI (SF-295 CNS): 56.7 µM
- GI50 (SF-539 CNS): 2930 nM
- TGI (SF-539 CNS): 19.9 µM
- GI50 (SK-MEL-2 melanoma): 1960 nM
- TGI (SK-MEL-2 melanoma): 5.13 µM
- GI50 (SK-MEL-28 melanoma): 3.01 µM
- TGI (SK-MEL-28 melanoma): 18 µM
- GI50 (SK-MEL-5 melanoma): 6.55 µM
- TGI (SK-MEL-5 melanoma): 44.4 µM
- GI50 (SK-OV-3 ovarian): 2300 nM
- TGI (SK-OV-3 ovarian): 7 µM
- GI50 (SN12C renal): 2870 nM
- TGI (SN12C renal): 10.8 µM
- GI50 (SNB-19 CNS): 3.33 µM
- TGI (SNB-19 CNS): 21.7 µM
- GI50 (SNB-75 CNS): 2370 nM
- TGI (SNB-75 CNS): 9.73 µM
- GI50 (SR leukemia): 2650 nM
- TGI (SR leukemia): 17.9 µM
- GI50 (SW-620 colon): 4.14 µM
- TGI (SW-620 colon): 80.5 µM
- GI50 (T-47D breast): 2320 nM
- TGI (T-47D breast): 8.35 µM
- GI50 (TK-10 renal): 11.8 µM
- TGI (TK-10 renal): 37.3 µM
- GI50 (U251 CNS): 2690 nM
- TGI (U251 CNS): > 100 µM
- GI50 (UACC-257 melanoma): 2700 nM
- TGI (UACC-257 melanoma): 14.2 µM
- GI50 (UACC-62 melanoma): 1970 nM
- TGI (UACC-62 melanoma): 5.53 µM
- GI50 (UO-31 renal): 6.31 µM
- TGI (UO-31 renal): > 100 µM
